# Assays:
# barley = assay: Herbicidal bioassay, barley (% necrosis); assay type: in vivo
# Outline: (§1)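 Scoring of % necrosis followed EPPO guideline PP1/135 at specified growth intervals, five replicates per species and treatment. Plants at the 2-4 true leaf stage received Potter-tower sprays of DMSO-diluted compounds across six levels from 0.0001% to 0.05%, with water and DMSO controls.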
# peas = assay: Herbicidal bioassay, peas (% necrosis); assay type: in vivo
# Outline: as §1
smiles,measurement,setting,value
"CC(/C=N/O)Oc1ccc(Oc2ccc(C(F)(F)F)cn2)cc1 (stereo not drawn) [Compound 64, (1E)-2-[4-[[5-(Trifluoromethyl)-2-pyridyl]oxy]phenoxy]propanal oxime]",Sum of % necrosis in barley,"barley; Dose 0.000001, Day 0",C (less than 50% necrosis)
same,Sum of % necrosis in barley,"barley; Dose 0.000001, Day 1",C (less than 50% necrosis)
same,Sum of % necrosis in barley,"barley; Dose 0.000001, Day 3",C (less than 50% necrosis)
same,Sum of % necrosis in barley,"barley; Dose 0.000001, Day 7",C (less than 50% necrosis)
same,Sum of % necrosis in barley,"barley; Dose 0.000001, Day 10",C (less than 50% necrosis)
same,Sum of % necrosis in barley,"barley; Dose 0.000001, Day 14",C (less than 50% necrosis)
same,Sum of % necrosis in barley,"barley; Dose 0.000001, Day 21",C (less than 50% necrosis)
same,Sum of % necrosis in barley,"barley; Dose 0.000005, Day 0",C (less than 50% necrosis)
same,Sum of % necrosis in barley,"barley; Dose 0.000005, Day 1",C (less than 50% necrosis)
same,Sum of % necrosis in barley,"barley; Dose 0.000005, Day 3",C (less than 50% necrosis)
same,Sum of % necrosis in barley,"barley; Dose 0.000005, Day 7",C (less than 50% necrosis)
same,Sum of % necrosis in barley,"barley; Dose 0.000005, Day 10",C (less than 50% necrosis)
same,Sum of % necrosis in barley,"barley; Dose 0.000005, Day 14",C (less than 50% necrosis)
same,Sum of % necrosis in barley,"barley; Dose 0.000005, Day 21",C (less than 50% necrosis)
same,Sum of % necrosis in barley,"barley; Dose 0.00001, Day 0",C (less than 50% necrosis)
same,Sum of % necrosis in barley,"barley; Dose 0.00001, Day 1",C (less than 50% necrosis)
same,Sum of % necrosis in barley,"barley; Dose 0.00001, Day 3",C (less than 50% necrosis)
same,Sum of % necrosis in barley,"barley; Dose 0.00001, Day 7",C (less than 50% necrosis)
same,Sum of % necrosis in barley,"barley; Dose 0.00001, Day 10",C (less than 50% necrosis)
same,Sum of % necrosis in barley,"barley; Dose 0.00001, Day 14",C (less than 50% necrosis)
same,Sum of % necrosis in barley,"barley; Dose 0.00001, Day 21",C (less than 50% necrosis)
same,Sum of % necrosis in barley,"barley; Dose 0.00005, Day 0",C (less than 50% necrosis)
same,Sum of % necrosis in barley,"barley; Dose 0.00005, Day 1",C (less than 50% necrosis)
same,Sum of % necrosis in barley,"barley; Dose 0.00005, Day 3",C (less than 50% necrosis)
same,Sum of % necrosis in barley,"barley; Dose 0.00005, Day 7",C (less than 50% necrosis)
same,Sum of % necrosis in barley,"barley; Dose 0.00005, Day 10",C (less than 50% necrosis)
same,Sum of % necrosis in barley,"barley; Dose 0.00005, Day 14",C (less than 50% necrosis)
same,Sum of % necrosis in barley,"barley; Dose 0.00005, Day 21",C (less than 50% necrosis)
same,Sum of % necrosis in barley,"barley; Dose 0.0001, Day 0",C (less than 50% necrosis)
same,Sum of % necrosis in barley,"barley; Dose 0.0001, Day 1",C (less than 50% necrosis)
same,Sum of % necrosis in barley,"barley; Dose 0.0001, Day 3",C (less than 50% necrosis)
same,Sum of % necrosis in barley,"barley; Dose 0.0001, Day 7",C (less than 50% necrosis)
same,Sum of % necrosis in barley,"barley; Dose 0.0001, Day 10",C (less than 50% necrosis)
same,Sum of % necrosis in barley,"barley; Dose 0.0001, Day 14",C (less than 50% necrosis)
same,Sum of % necrosis in barley,"barley; Dose 0.0001, Day 21",C (less than 50% necrosis)
same,Sum of % necrosis in barley,"barley; Dose 0.0005, Day 0",C (less than 50% necrosis)
same,Sum of % necrosis in barley,"barley; Dose 0.0005, Day 1",C (less than 50% necrosis)
same,Sum of % necrosis in barley,"barley; Dose 0.0005, Day 3",C (less than 50% necrosis)
same,Sum of % necrosis in barley,"barley; Dose 0.0005, Day 7",C (less than 50% necrosis)
same,Sum of % necrosis in barley,"barley; Dose 0.0005, Day 10",B (50%-80% necrosis)
same,Sum of % necrosis in barley,"barley; Dose 0.0005, Day 14",B (50%-80% necrosis)
same,Sum of % necrosis in barley,"barley; Dose 0.0005, Day 21",B (50%-80% necrosis)
same,Sum of % necrosis in Peas,"peas; Dose 0.000001, Day 0",C (less than 50% necrosis)
same,Sum of % necrosis in Peas,"peas; Dose 0.000001, Day 1",C (less than 50% necrosis)
same,Sum of % necrosis in Peas,"peas; Dose 0.000001, Day 3",C (less than 50% necrosis)
same,Sum of % necrosis in Peas,"peas; Dose 0.000001, Day 7",C (less than 50% necrosis)
same,Sum of % necrosis in Peas,"peas; Dose 0.000001, Day 10",C (less than 50% necrosis)
same,Sum of % necrosis in Peas,"peas; Dose 0.000001, Day 14",C (less than 50% necrosis)
same,Sum of % necrosis in Peas,"peas; Dose 0.000001, Day 21",B (50%-80% necrosis)
same,Sum of % necrosis in Peas,"peas; Dose 0.000005, Day 0",C (less than 50% necrosis)
same,Sum of % necrosis in Peas,"peas; Dose 0.000005, Day 1",C (less than 50% necrosis)
same,Sum of % necrosis in Peas,"peas; Dose 0.000005, Day 3",C (less than 50% necrosis)
same,Sum of % necrosis in Peas,"peas; Dose 0.000005, Day 7",C (less than 50% necrosis)
same,Sum of % necrosis in Peas,"peas; Dose 0.000005, Day 10",C (less than 50% necrosis)
same,Sum of % necrosis in Peas,"peas; Dose 0.000005, Day 14",C (less than 50% necrosis)
same,Sum of % necrosis in Peas,"peas; Dose 0.000005, Day 21",C (less than 50% necrosis)
same,Sum of % necrosis in Peas,"peas; Dose 0.00001, Day 0",C (less than 50% necrosis)
same,Sum of % necrosis in Peas,"peas; Dose 0.00001, Day 1",C (less than 50% necrosis)
same,Sum of % necrosis in Peas,"peas; Dose 0.00001, Day 3",C (less than 50% necrosis)
same,Sum of % necrosis in Peas,"peas; Dose 0.00001, Day 7",C (less than 50% necrosis)
same,Sum of % necrosis in Peas,"peas; Dose 0.00001, Day 10",C (less than 50% necrosis)
same,Sum of % necrosis in Peas,"peas; Dose 0.00001, Day 14",B (50%-80% necrosis)
same,Sum of % necrosis in Peas,"peas; Dose 0.00001, Day 21",A (over 80% necrosis)
same,Sum of % necrosis in Peas,"peas; Dose 0.00005, Day 0",C (less than 50% necrosis)
same,Sum of % necrosis in Peas,"peas; Dose 0.00005, Day 1",C (less than 50% necrosis)
same,Sum of % necrosis in Peas,"peas; Dose 0.00005, Day 3",C (less than 50% necrosis)
same,Sum of % necrosis in Peas,"peas; Dose 0.00005, Day 7",C (less than 50% necrosis)
same,Sum of % necrosis in Peas,"peas; Dose 0.00005, Day 10",C (less than 50% necrosis)
same,Sum of % necrosis in Peas,"peas; Dose 0.00005, Day 14",C (less than 50% necrosis)
same,Sum of % necrosis in Peas,"peas; Dose 0.00005, Day 21",C (less than 50% necrosis)
same,Sum of % necrosis in Peas,"peas; Dose 0.0001, Day 0",C (less than 50% necrosis)
same,Sum of % necrosis in Peas,"peas; Dose 0.0001, Day 1",C (less than 50% necrosis)
same,Sum of % necrosis in Peas,"peas; Dose 0.0001, Day 3",C (less than 50% necrosis)
same,Sum of % necrosis in Peas,"peas; Dose 0.0001, Day 7",C (less than 50% necrosis)
same,Sum of % necrosis in Peas,"peas; Dose 0.0001, Day 10",C (less than 50% necrosis)
same,Sum of % necrosis in Peas,"peas; Dose 0.0001, Day 14",B (50%-80% necrosis)
same,Sum of % necrosis in Peas,"peas; Dose 0.0001, Day 21",A (over 80% necrosis)
same,Sum of % necrosis in Peas,"peas; Dose 0.0005, Day 0",C (less than 50% necrosis)
same,Sum of % necrosis in Peas,"peas; Dose 0.0005, Day 1",C (less than 50% necrosis)
same,Sum of % necrosis in Peas,"peas; Dose 0.0005, Day 3",C (less than 50% necrosis)
same,Sum of % necrosis in Peas,"peas; Dose 0.0005, Day 7",C (less than 50% necrosis)
same,Sum of % necrosis in Peas,"peas; Dose 0.0005, Day 10",C (less than 50% necrosis)
same,Sum of % necrosis in Peas,"peas; Dose 0.0005, Day 14",C (less than 50% necrosis)
same,Sum of % necrosis in Peas,"peas; Dose 0.0005, Day 21",A (over 80% necrosis)

# Reference: US20150094474A1, “AGRICULTURAL CHEMICALS” (Redx Pharma Ltd., priority 2012, published 2015)
